Assays:
Plasma [1] = assay: Drug uptake in monkey plasma assessed as unchanged compound at 1 to 5 mg/kg, po administered as single dose via gavage by LC-MS/MS analysis; format: ADME, organism-based, Macaca mulatta; set-up: dose 1-5 mg/kg, dosed compound name [14C]Rivoglitazone, route oral; details: rhesus monkey, in vivo
Rattus norvegicus = assay: Drug uptake in F344/DuCrlCrlj rat plasma assessed as unchanged compound at 1 to 5 mg/kg, po administered as single dose via gavage by LC-MS/MS analysis; format: ADME, organism-based; set-up: dose 1-5 mg/kg, dosed compound name [14C]Rivoglitazone, route oral; details: in vivo
[2] = Drug excretion in monkey urine assessed as unchanged compound at 1 mg/kg, po administered via gavage measured during 0 to 72 hrs by radio-HPLC analysis; format: ADME, organism-based, Macaca mulatta; set-up: dose 1 mg/kg, dosed compound name [14C]Rivoglitazone, route oral; details: rhesus monkey, read-out: Compound recovery
[3] = Drug excretion in monkey feces assessed as unchanged compound at 1 mg/kg, po administered via gavage measured during 0 to 72 hrs by radio-HPLC analysis; format: ADME, organism-based, Macaca mulatta; set-up: dose 1 mg/kg, dosed compound name [14C]Rivoglitazone, route oral; details: rhesus monkey, read-out: Compound recovery
[4] = Drug excretion in monkey urine/feces assessed as unchanged compound at 1 mg/kg, po administered via gavage measured during 0 to 72 hrs by radio-HPLC analysis; format: ADME, organism-based, Macaca mulatta; set-up: dose 1 mg/kg, dosed compound name [14C]Rivoglitazone, route oral; details: rhesus monkey, urine and feces, read-out: Compound recovery
Plasma [5] = assay: Drug metabolism in F344/DuCrlCrlj rat plasma assessed as 2-((4-((2,4-dioxothiazolidin-5-yl)methyl)phenoxy)methyl)-1-methyl-1H-benzo[d]imidazol-6-yl hydrogen sulfate formation at 1 to 5 mg/kg, po administered as single dose via gavage by LC-MS/MS analysis; format: ADME, organism-based; set-up: dose 1-5 mg/kg, dosed compound name [14C]Rivoglitazone, route oral; details: in vivo
[6] = Oral bioavailability in monkey at 0.0986 mg/kg administered via gavage by LC-MS/MS analysis; format: ADME, organism-based, Macaca mulatta; set-up: dosed compound name [14C]Rivoglitazone; details: rhesus monkey, in vivo
[7] = Cmax in monkey at 0.493 mg/kg, po administered via gavage by LC-MS/MS analysis; format: ADME, organism-based, Macaca mulatta; set-up: dose 0.493 mg/kg, dosed compound name [14C]Rivoglitazone, route oral; details: rhesus monkey, in vivo
[8] = Terminal elimination half life in monkey at 0.493 mg/kg, po administered via gavage by LC-MS/MS analysis; format: ADME, organism-based, Macaca mulatta; set-up: dose 0.493 mg/kg, dosed compound name [14C]Rivoglitazone, route oral; details: rhesus monkey, in vivo, read-out: beta t1/2 (converted)
[9] = Apparent total clearance in monkey at 0.493 mg/kg, po administered via gavage by LC-MS/MS analysis; format: ADME, organism-based, Macaca mulatta; set-up: dose 0.493 mg/kg, dosed compound name [14C]Rivoglitazone, route oral; details: rhesus monkey, in vivo, read-out: CLt/F
[10] = AUC (0 to t) in monkey at 0.986 mg/kg, po administered via gavage by LC-MS/MS analysis; format: ADME, organism-based, Macaca mulatta; set-up: dose 0.986 mg/kg, dosed compound name [14C]Rivoglitazone, route oral; details: rhesus monkey, plasma
[11] = Terminal elimination half life in monkey at 0.986 mg/kg, po administered via gavage by LC-MS/MS analysis; format: ADME, organism-based, Macaca mulatta; set-up: dose 0.986 mg/kg, dosed compound name [14C]Rivoglitazone, route oral; details: rhesus monkey, in vivo, read-out: beta t1/2 (converted)
[12] = Volume of distribution at steady state in monkey at 0.986 mg/kg, iv administered via tail vein by LC-MS/MS analysis; format: ADME, organism-based, Macaca mulatta; set-up: dose 0.986 mg/kg, dosed compound name [14C]Rivoglitazone, route intravenous; details: rhesus monkey, in vivo, read-out: Vdss
[13] = AUC (0 to t) in F344/DuCrlCrlj rat at 0.1 mg/kg, po administered via gavage by LC-MS/MS analysis; format: ADME, organism-based; set-up: dose 0.1 mg/kg, dosed compound name [14C]Rivoglitazone, route oral; details: plasma
[14] = Tmax in F344/DuCrlCrlj rat at 0.1 mg/kg, po administered via gavage by LC-MS/MS analysis; format: ADME, organism-based; set-up: dose 0.1 mg/kg, dosed compound name [14C]Rivoglitazone, route oral; details: in vivo
[15] = Terminal elimination half life in F344/DuCrlCrlj rat at 0.1 mg/kg, po administered via gavage by LC-MS/MS analysis; format: ADME, organism-based; set-up: dose 0.1 mg/kg, dosed compound name [14C]Rivoglitazone, route oral; details: in vivo, read-out: beta t1/2 (converted)
[16] = Oral bioavailability in F344/DuCrlCrlj rat at 0.1 mg/kg administered via gavage by LC-MS/MS analysis; format: ADME, organism-based; set-up: dosed compound name [14C]Rivoglitazone; details: in vivo
[17] = Cmax in F344/DuCrlCrlj rat at 0.5 mg/kg, po administered via gavage by LC-MS/MS analysis; format: ADME, organism-based; set-up: dose 0.5 mg/kg, dosed compound name [14C]Rivoglitazone, route oral; details: in vivo
[18] = Terminal elimination half life in F344/DuCrlCrlj rat at 0.5 mg/kg, po administered via gavage by LC-MS/MS analysis; format: ADME, organism-based; set-up: dose 0.5 mg/kg, dosed compound name [14C]Rivoglitazone, route oral; details: in vivo, read-out: beta t1/2 (converted)
[19] = Cmax in F344/DuCrlCrlj rat at 1 mg/kg, po administered via gavage by LC-MS/MS analysis; format: ADME, organism-based; set-up: dose 1 mg/kg, dosed compound name [14C]Rivoglitazone, route oral; details: in vivo
[20] = AUC (0 to t) in monkey at 0.0986 mg/kg, po administered via gavage by LC-MS/MS analysis; format: ADME, organism-based, Macaca mulatta; set-up: dose 0.0986 mg/kg, dosed compound name [14C]Rivoglitazone, route oral; details: rhesus monkey, plasma
[21] = Cmax in monkey at 0.0986 mg/kg, po administered via gavage by LC-MS/MS analysis; format: ADME, organism-based, Macaca mulatta; set-up: dose 0.0986 mg/kg, dosed compound name [14C]Rivoglitazone, route oral; details: rhesus monkey, in vivo
[22] = Terminal elimination half life in monkey at 0.0986 mg/kg, po administered via gavage by LC-MS/MS analysis; format: ADME, organism-based, Macaca mulatta; set-up: dose 0.0986 mg/kg, dosed compound name [14C]Rivoglitazone, route oral; details: rhesus monkey, in vivo, read-out: beta t1/2 (converted)
[23] = Apparent total clearance in monkey at 0.0986 mg/kg, po administered via gavage by LC-MS/MS analysis; format: ADME, organism-based, Macaca mulatta; set-up: dose 0.0986 mg/kg, dosed compound name [14C]Rivoglitazone, route oral; details: rhesus monkey, in vivo, read-out: CLt/F
[24] = AUC (0 to t) in monkey at 0.493 mg/kg, iv administered via tail vein by LC-MS/MS analysis; format: ADME, organism-based, Macaca mulatta; set-up: dose 0.493 mg/kg, dosed compound name [14C]Rivoglitazone, route intravenous; details: rhesus monkey, plasma
[25] = AUC (0 to infinity) in monkey at 0.493 mg/kg, iv administered via tail vein by LC-MS/MS analysis; format: ADME, organism-based, Macaca mulatta; set-up: time infinity, dose 0.493 mg/kg, dosed compound name [14C]Rivoglitazone, route intravenous; details: rhesus monkey, plasma
[26] = Total clearance in monkey at 0.493 mg/kg, iv administered via tail vein by LC-MS/MS analysis; format: ADME, organism-based, Macaca mulatta; set-up: dose 0.493 mg/kg, dosed compound name [14C]Rivoglitazone, route intravenous; details: rhesus monkey, in vivo
[27] = AUC (0 to t) in F344/DuCrlCrlj rat at 0.1 mg/kg, iv administered via tail vein by LC-MS/MS analysis; format: ADME, organism-based; set-up: dose 0.1 mg/kg, dosed compound name [14C]Rivoglitazone, route intravenous; details: plasma
[28] = AUC (0 to infinity) in F344/DuCrlCrlj rat at 0.1 mg/kg, iv administered via tail vein by LC-MS/MS analysis; format: ADME, organism-based; set-up: time infinity, dose 0.1 mg/kg, dosed compound name [14C]Rivoglitazone, route intravenous; details: plasma
[29] = Total clearance in F344/DuCrlCrlj rat at 0.1 mg/kg, iv administered via tail vein by LC-MS/MS analysis; format: ADME, organism-based; set-up: dose 0.1 mg/kg, dosed compound name [14C]Rivoglitazone, route intravenous; details: in vivo
[30] = Total clearance in F344/DuCrlCrlj rat at 0.5 mg/kg, iv administered via tail vein by LC-MS/MS analysis; format: ADME, organism-based; set-up: dose 0.5 mg/kg, dosed compound name [14C]Rivoglitazone, route intravenous; details: in vivo
[31] = AUC (0 to t) in monkey at 0.0986 mg/kg, iv administered via tail vein by LC-MS/MS analysis; format: ADME, organism-based, Macaca mulatta; set-up: dose 0.0986 mg/kg, dosed compound name [14C]Rivoglitazone, route intravenous; details: rhesus monkey, plasma
[32] = AUC (0 to infinity) in monkey at 0.0986 mg/kg, iv administered via tail vein by LC-MS/MS analysis; format: ADME, organism-based, Macaca mulatta; set-up: time infinity, dose 0.0986 mg/kg, dosed compound name [14C]Rivoglitazone, route intravenous; details: rhesus monkey, plasma
[33] = Volume of distribution at steady state in monkey at 0.0986 mg/kg, iv administered via tail vein by LC-MS/MS analysis; format: ADME, organism-based, Macaca mulatta; set-up: dose 0.0986 mg/kg, dosed compound name [14C]Rivoglitazone, route intravenous; details: rhesus monkey, in vivo, read-out: Vdss

COc1ccc2nc(COc3ccc(CC4SC(=O)NC4=O)cc3)n(C)c2c1.Cl (racemic)
Compound recovery (Plasma [1]): metabolite_detected
Compound recovery (Rattus norvegicus): metabolite_detected
dose excreted [2]: 0.3%
dose excreted [3]: 23.5%
dose excreted [4]: 23.8%
Compound recovery (Plasma [5]): metabolite_detected
bioavailability [6]: 106%
Cmax [7]: 1330 ng/mL
half-life [8]: 454 min
CL/F [9]: 0.485 mL/min/kg
AUC(0-t) [10]: 35800 ng·h/mL
half-life [11]: 440 min
Vd [12]: 0.138 L/kg
AUC(0-t) [13]: 4340 ng·h/mL
Tmax [14]: 3.25 h
half-life [15]: 261 min
bioavailability [16]: 98.1%
Cmax [17]: 2090 ng/mL
half-life [18]: 299 min
Cmax [19]: 4570 ng/mL
AUC(0-t) [20]: 3440 ng·h/mL
Cmax [21]: 242 ng/mL
half-life [22]: 500 min
CL/F [23]: 0.432 mL/min/kg
AUC(0-t) [24]: 21700 ng·h/mL
AUC(0-inf) [25]: 23500 ng·h/mL
clearance [26]: 0.371 mL/min/kg
AUC(0-t) [27]: 4530 ng·h/mL
AUC(0-inf) [28]: 4670 ng·h/mL
clearance [29]: 0.329 mL/min/kg
clearance [30]: 0.333 mL/min/kg
AUC(0-t) [31]: 3800 ng·h/mL
AUC(0-inf) [32]: 5000 ng·h/mL
Vd [33]: 0.166 L/kg
